Results: patent US20120053053A1, “PYRIMIDINE DERIVATIVES AND THEIR USE AS HERBICIDES” (SYNGENTA CROP PROTECTION, LLC, priority 2009, published 2012)

What was measured:
Assay type in all cases: in vivo
[1] = tested on: Ipomea hederaceae (IPOHE); experiment: Pre-emergence biological efficacy (percentage damage); conditions: Ipomoea hederacea, 312 h, dose 1,000 g/ha, evaluated after 13 days, 100=total damage, 0=no damage
In short: (§1)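 Sow seeds in pots of standard soil; hold 1 day in glasshouse (24/16 °C, 14 h light, 65% humidity). Spray aqueous solution from acetone/water (50:50) with 0.5% Tween 20 at 250 or 1000 g/ha. Grow on, watering twice daily; rate damage at 13 days.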

[2] = tested on: Alopecurus myosuroides (ALOMY); experiment: as above; conditions: Alopecurus myosuroides, 312 h, dose 1,000 g/ha, evaluated after 13 days, 100=total damage, 0=no damage
In short: as §1

Solanum nigrum (SOLNI) [3] = experiment: as above; conditions: Solanum nigrum, 312 h, dose 1,000 g/ha, evaluated after 13 days, 100=total damage, 0=no damage
In short: as §1

[4] = tested on: Echinochloa crus-galli (ECHCG); experiment: as above; conditions: Echinochloa crus-galli, 312 h, dose 1,000 g/ha, evaluated after 13 days, 100=total damage, 0=no damage
In short: as §1

[5] = tested on: Amaranthus retoflexus (AMARE); experiment: as above; conditions: Amaranthus retroflexus, 312 h, dose 1,000 g/ha, evaluated after 13 days, 100=total damage, 0=no damage
In short: as §1

Setaria faberi (SETFA) [6] = experiment: as above; conditions: Setaria faberi, 312 h, dose 1,000 g/ha, evaluated after 13 days, 100=total damage, 0=no damage
In short: as §1

[7] = tested on: Ipomea hederaceae (IPOHE); experiment: Post-emergence biological efficacy (percentage damage); conditions: Ipomoea hederacea, 312 h, dose 1,000 g/ha, evaluated after 13 days, 100=total damage, 0=no damage
In short: (§2)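 Applied rates: 250 or 1000 g/ha, sprayed from acetone/water (50:50) with 0.5% Tween 20 onto plants 8 days after sowing. Visual damage rating 13 days later on a 0–100 scale.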

[8] = tested on: Alopecurus myosuroides (ALOMY); experiment: as above; conditions: Alopecurus myosuroides, 312 h, dose 1,000 g/ha, evaluated after 13 days, 100=total damage, 0=no damage
In short: as §2

Solanum nigrum (SOLNI) [9] = experiment: as above; conditions: Solanum nigrum, 312 h, dose 1,000 g/ha, evaluated after 13 days, 100=total damage, 0=no damage
In short: as §2

[10] = tested on: Echinochloa crus-galli (ECHCG); experiment: as above; conditions: Echinochloa crus-galli, 312 h, dose 1,000 g/ha, evaluated after 13 days, 100=total damage, 0=no damage
In short: as §2

[11] = tested on: Amaranthus retoflexus (AMARE); experiment: as above; conditions: Amaranthus retroflexus, 312 h, dose 1,000 g/ha, evaluated after 13 days, 100=total damage, 0=no damage
In short: as §2

Setaria faberi (SETFA) [12] = experiment: as above; conditions: Setaria faberi, 312 h, dose 1,000 g/ha, evaluated after 13 days, 100=total damage, 0=no damage
In short: as §2

SMILES	pest or weed control at 1000 g/ha [1] [%]	pest or weed control at 1000 g/ha [2] [%]	pest or weed control at 1000 g/ha (Solanum nigrum (SOLNI) [3]) [%]	pest or weed control at 1000 g/ha [4] [%]	pest or weed control at 1000 g/ha [5] [%]	pest or weed control at 1000 g/ha (Setaria faberi (SETFA) [6]) [%]	pest or weed control at 1000 g/ha [7] [%]	pest or weed control at 1000 g/ha [8] [%]	pest or weed control at 1000 g/ha (Solanum nigrum (SOLNI) [9]) [%]	pest or weed control at 1000 g/ha [10] [%]	pest or weed control at 1000 g/ha [11] [%]	pest or weed control at 1000 g/ha (Setaria faberi (SETFA) [12]) [%]
COC(=O)c1nc(-c2ccc(C(F)(F)F)cc2)nc(N)c1C(C)=O [Compound 31-53, 4-amino-6-methoxycarbonyl-5-methylcarbonyl-2-(4-trifluoromethylphenyl)-pyrimidine]	90	80	100	90	100	90	90	90	100	100	100	100
C=CCOC(=O)c1nc(-c2ccc(Cl)c(N(C)C)c2F)nc(N)c1C=C [Compound 33-395, 4-Amino-2-(4-chloro-3-dimethylamino-2-fluorophenyl)-5-ethenyl-6-(prop-2-enyloxy)carbonyl-pyrimidine]	30	60	100	90	100	80	30	70	100	100	100	100
C=Cc1c(N)nc(-c2ccc(F)c(F)c2)nc1C(=O)OC [Compound 67-61, 4-Amino-2-(3,4-difluorophenyl)-5-ethenyl-6-methoxycarbonyl-pyrimidine]	50	30	70	30	100	30	60	20	90	40	100	10
C=Cc1c(N)nc(-c2ccc(SC)cc2)nc1C(=O)OC [Compound 72-61, 4-Amino-5-ethenyl-6-methoxycarbonyl-2-(4-methylthiophenyl)-pyrimidine]	70	0	50	0	60	0	50	10	60	0	10	0
C=Cc1c(N)nc(-c2ccc(Cl)c(N(C)C)c2F)nc1C(=O)OC [Compound 33-61]	40	0	30	0	50	10	90	20	80	20	70	30
C=Cc1c(N)nc(-c2ccc(C(=O)OC)cc2)nc1C(=O)OC [Compound 69-61, 4-Amino-5-ethenyl-6-methoxycarbonyl-2-(4-methoxycarbonyl-phenyl)-pyrimidine]	0	0	0	0	0	0	30	0	20	0	0	0
